{"source": "ChEMBL document CHEMBL3525908", "about": "“Chronic doxorubicin cardiotoxicity modulates cardiac cytochrome P450-mediated arachidonic acid metabolism in rats” (Drug Metab Dispos, 2012)", "key": {"H9c2 [1]": {"system": "H9c2", "test": "Cytotoxicity against rat H9c2 cells assessed as reduction in BNP mRNA expression at 1 uM after 6 hrs", "format": "cell-based", "conditions": "h9c2, 6 h; call rule not given here"}, "Rattus norvegicus [2]": {"system": "Rattus norvegicus", "test": "Cardiotoxicity in Sprague-Dawley rat assessed as increase in p53 gene expression level administered as cumulative dose of 15 mg/kg, ip divided into 6 injections for 2 weeks followed by compound washout period of 14 days by RT-PCR analysis relative to control", "format": "toxicity, organism-based", "design": "dose 15 mg/kg, route intraperitoneal", "conditions": "in vivo, 336 h"}, "Rattus norvegicus [3]": {"system": "Rattus norvegicus", "test": "Toxicity in Sprague-Dawley rat assessed as inhibition of CYP2C11 gene expression in liver administered as cumulative dose of 15 mg/kg, ip divided into 6 injections for 2 weeks followed by compound washout period of 14 days by RT-PCR analysis relative to control", "format": "organism-based", "design": "dose 15 mg/kg, route intraperitoneal", "conditions": "in vivo, 336 h"}, "Rattus norvegicus [4]": {"system": "Rattus norvegicus", "test": "Cardiotoxicity in Sprague-Dawley rat assessed as increase in CYP2J3 gene expression level administered as cumulative dose of 15 mg/kg, ip divided into 6 injections for 2 weeks followed by compound washout period of 14 days by RT-PCR analysis relative to control", "format": "toxicity, organism-based", "design": "dose 15 mg/kg, route intraperitoneal", "conditions": "in vivo, 336 h"}, "EPHX2": {"system": "EPHX2", "test": "Cardiotoxicity in Sprague-Dawley rat assessed as increase in EPHX2 gene expression level administered as cumulative dose of 15 mg/kg, ip divided into 6 injections for 2 weeks followed by compound washout period of 14 days by RT-PCR analysis relative to control", "format": "toxicity, organism-based", "design": "dose 15 mg/kg, route intraperitoneal", "conditions": "heart"}, "Rattus norvegicus [5]": {"system": "Rattus norvegicus", "test": "Cardiotoxicity in Sprague-Dawley rat assessed as increase in CYP2B1 gene expression level administered as cumulative dose of 15 mg/kg, ip divided into 6 injections for 2 weeks followed by compound washout period of 14 days by RT-PCR analysis relative to control", "format": "toxicity, organism-based", "design": "dose 15 mg/kg, route intraperitoneal", "conditions": "in vivo, 336 h"}, "Rattus norvegicus [6]": {"system": "Rattus norvegicus", "test": "Toxicity in Sprague-Dawley rat assessed as CYP4A1 gene expression in kidney administered as cumulative dose of 15 mg/kg, ip divided into 6 injections for 2 weeks followed by compound washout period of 14 days by RT-PCR analysis relative to control", "format": "organism-based", "design": "dose 15 mg/kg, route intraperitoneal", "conditions": "in vivo, 336 h"}, "Rattus norvegicus [7]": {"system": "Rattus norvegicus", "test": "Toxicity in Sprague-Dawley rat assessed as CYP2E1 gene expression in liver administered as cumulative dose of 15 mg/kg, ip divided into 6 injections for 2 weeks followed by compound washout period of 14 days by RT-PCR analysis relative to control", "format": "organism-based", "design": "dose 15 mg/kg, route intraperitoneal", "conditions": "in vivo, 336 h"}, "Rattus norvegicus [8]": {"system": "Rattus norvegicus", "test": "Toxicity in Sprague-Dawley rat assessed as CYP1A1 gene expression in kidney administered as cumulative dose of 15 mg/kg, ip divided into 6 injections for 2 weeks followed by compound washout period of 14 days by RT-PCR analysis relative to control", "format": "organism-based", "design": "dose 15 mg/kg, route intraperitoneal", "conditions": "in vivo, 336 h"}, "CYP4F5": {"system": "CYP4F5", "test": "Cardiotoxicity in Sprague-Dawley rat assessed as increase in CYP4F5 gene expression level administered as cumulative dose of 15 mg/kg, ip divided into 6 injections for 2 weeks followed by compound washout period of 14 days by RT-PCR analysis relative to control", "format": "toxicity, organism-based", "design": "dose 15 mg/kg, route intraperitoneal", "conditions": "heart"}, "Rattus norvegicus [9]": {"system": "Rattus norvegicus", "test": "(§1) Induction of CYP450-mediated arachidonic acid metabolism in Sprague-Dawley rat heart microsomes assessed as 8,9-EET formation administered as cumulative dose of 15 mg/kg, ip divided into 6 injections for 2 weeks followed by compound washout period of 14 days by LC-ESI-MS analysis relative to control", "format": "ADME, organism-based", "design": "dose 15 mg/kg, route intraperitoneal", "conditions": "336 h"}, "CYP1B1": {"system": "CYP1B1", "test": "Toxicity in Sprague-Dawley rat assessed as induction of CYP1B1 gene expression in liver administered as cumulative dose of 15 mg/kg, ip divided into 6 injections for 2 weeks followed by compound washout period of 14 days by RT-PCR analysis relative to control", "format": "organism-based", "design": "dose 15 mg/kg, route intraperitoneal"}, "Rattus norvegicus [10]": {"system": "Rattus norvegicus", "test": "Toxicity in Sprague-Dawley rat assessed as CYP4F4 gene expression in liver administered as cumulative dose of 15 mg/kg, ip divided into 6 injections for 2 weeks followed by compound washout period of 14 days by RT-PCR analysis relative to control", "format": "organism-based", "design": "dose 15 mg/kg, route intraperitoneal", "conditions": "in vivo, 336 h"}, "Rattus norvegicus [11]": {"system": "Rattus norvegicus", "test": "Toxicity in Sprague-Dawley rat assessed as induction of IL-6 gene expression in kidney administered as cumulative dose of 15 mg/kg, ip divided into 6 injections for 2 weeks followed by compound washout period of 14 days by RT-PCR analysis relative to control", "format": "organism-based", "design": "dose 15 mg/kg, route intraperitoneal", "conditions": "336 h"}, "Rattus norvegicus [12]": {"system": "Rattus norvegicus", "test": "Toxicity in Sprague-Dawley rat assessed as CYP2B1 gene expression in kidney administered as cumulative dose of 15 mg/kg, ip divided into 6 injections for 2 weeks followed by compound washout period of 14 days by RT-PCR analysis relative to control", "format": "organism-based", "design": "dose 15 mg/kg, route intraperitoneal", "conditions": "in vivo, 336 h"}, "H9c2 [13]": {"system": "H9c2", "test": "Cytotoxicity against rat H9c2 cells assessed as reduction in ANP mRNA expression at 1 uM after 6 hrs in presence of t-AUCB", "format": "cell-based", "conditions": "h9c2, 6 h"}, "Rattus norvegicus [14]": {"system": "Rattus norvegicus", "test": "Cardiotoxicity in Sprague-Dawley rat assessed as increase in CYP1B1 gene expression level administered as cumulative dose of 15 mg/kg, ip divided into 6 injections for 2 weeks followed by compound washout period of 14 days by RT-PCR analysis relative to control", "format": "toxicity, organism-based", "design": "dose 15 mg/kg, route intraperitoneal", "conditions": "in vivo, 336 h"}, "Rattus norvegicus [15]": {"system": "Rattus norvegicus", "test": "Toxicity in Sprague-Dawley rat assessed as CYP1A2 gene expression in kidney administered as cumulative dose of 15 mg/kg, ip divided into 6 injections for 2 weeks followed by compound washout period of 14 days by RT-PCR analysis relative to control", "format": "organism-based", "design": "dose 15 mg/kg, route intraperitoneal", "conditions": "in vivo, 336 h"}, "H9c2 [16]": {"system": "H9c2", "test": "Cytotoxicity against rat H9c2 cells assessed as reduction in ANP mRNA expression at 1 uM after 6 hrs in presence of HET0016", "format": "cell-based", "conditions": "h9c2, 6 h"}, "Rattus norvegicus [17]": {"system": "Rattus norvegicus", "test": "as §1, with “omega-1 hydroxylase-mediated” for “CYP450-mediated”, “19-HETE” for “8,9-EET”", "format": "ADME, organism-based", "design": "dose 15 mg/kg, route intraperitoneal", "conditions": "336 h"}, "Rattus norvegicus [18]": {"system": "Rattus norvegicus", "test": "Toxicity in Sprague-Dawley rat assessed as induction of TNF-alpha gene expression in liver administered as cumulative dose of 15 mg/kg, ip divided into 6 injections for 2 weeks followed by compound washout period of 14 days by RT-PCR analysis relative to control", "format": "organism-based", "design": "dose 15 mg/kg, route intraperitoneal", "conditions": "336 h"}, "Rattus norvegicus [19]": {"system": "Rattus norvegicus", "test": "as §1, with “[…]-mediated” for “CYP450-mediated”, “20-HETE” for “8,9-EET”", "format": "ADME, organism-based", "design": "dose 15 mg/kg, route intraperitoneal", "conditions": "336 h"}, "Rattus norvegicus [20]": {"system": "Rattus norvegicus", "test": "Cardiotoxicity in Sprague-Dawley rat assessed as increase in sEH activity in heart cytosol administered as cumulative dose of 15 mg/kg, ip divided into 6 injections for 2 weeks followed by compound washout period of 14 days by RT-PCR analysis relative to control", "format": "toxicity, organism-based", "design": "dose 15 mg/kg, route intraperitoneal", "conditions": "336 h"}, "Rattus norvegicus [21]": {"system": "Rattus norvegicus", "test": "Cardiotoxicity in Sprague-Dawley rat assessed as increase in CYP2C11 gene expression level administered as cumulative dose of 15 mg/kg, ip divided into 6 injections for 2 weeks followed by compound washout period of 14 days by RT-PCR analysis relative to control", "format": "toxicity, organism-based", "design": "dose 15 mg/kg, route intraperitoneal", "conditions": "in vivo, 336 h"}, "Rattus norvegicus [22]": {"system": "Rattus norvegicus", "test": "Toxicity in Sprague-Dawley rat assessed as inhibition of CYP2B1 gene expression in liver administered as cumulative dose of 15 mg/kg, ip divided into 6 injections for 2 weeks followed by compound washout period of 14 days by RT-PCR analysis relative to control", "format": "organism-based", "design": "dose 15 mg/kg, route intraperitoneal", "conditions": "in vivo, 336 h"}, "Rattus norvegicus [23]": {"system": "Rattus norvegicus", "test": "Cardiotoxicity in Sprague-Dawley rat assessed as increase in IL-6 gene expression level administered as cumulative dose of 15 mg/kg, ip divided into 6 injections for 2 weeks followed by compound washout period of 14 days by RT-PCR analysis relative to control", "format": "toxicity, organism-based", "design": "dose 15 mg/kg, route intraperitoneal", "conditions": "in vivo, 336 h"}, "Rattus norvegicus [24]": {"system": "Rattus norvegicus", "test": "as §1, with “epoxygenase-mediated” for “CYP450-mediated”, “EET/DHET” for “8,9-EET”", "format": "ADME, organism-based", "design": "dose 15 mg/kg, route intraperitoneal", "conditions": "336 h"}}, "data": [{"smiles": "COc1cccc2c1C(=O)c1c(O)c3c(c(O)c1C2=O)C[C@@](O)(C(=O)CO)C[C@@H]3O[C@H]1C[C@H](N)[C@H](O)[C@H](C)O1", "note": "[DOXORUBICIN]", "values": [{"measurement": "Activity", "setting": "H9c2 [1]", "value": "Non-toxic"}, {"measurement": "Ratio", "setting": "Rattus norvegicus [2]", "value": 1.7}, {"measurement": "Ratio", "setting": "Rattus norvegicus [3]", "value": 0.7}, {"measurement": "Activity", "setting": "Rattus norvegicus [4]", "value": "Non-toxic"}, {"measurement": "fold induction at 336 h", "setting": "EPHX2", "value": 1.9}, {"measurement": "Activity", "setting": "Rattus norvegicus [5]", "value": "Non-toxic"}, {"measurement": "Activity", "setting": "Rattus norvegicus [6]", "value": "Non-toxic"}, {"measurement": "Activity", "setting": "Rattus norvegicus [7]", "value": "Non-toxic"}, {"measurement": "Activity", "setting": "Rattus norvegicus [8]", "value": "Non-toxic"}, {"measurement": "fold induction at 336 h", "setting": "CYP4F5", "value": 2}, {"measurement": "Activity", "setting": "Rattus norvegicus [9]", "value": "Active"}, {"measurement": "fold induction at 336 h", "setting": "CYP1B1", "value": 2.5}, {"measurement": "Activity", "setting": "Rattus norvegicus [10]", "value": "Non-toxic"}, {"measurement": "fold induction at 15 mg/kg", "setting": "Rattus norvegicus [11]", "value": 4.7}, {"measurement": "Activity", "setting": "Rattus norvegicus [12]", "value": "Non-toxic"}, {"measurement": "Activity", "setting": "H9c2 [13]", "value": "Toxic"}, {"measurement": "Activity", "setting": "Rattus norvegicus [14]", "value": "Non-toxic"}, {"measurement": "Activity", "setting": "Rattus norvegicus [15]", "value": "Non-toxic"}, {"measurement": "Activity", "setting": "H9c2 [16]", "value": "Toxic"}, {"measurement": "Activity", "setting": "Rattus norvegicus [17]", "value": "Non-toxic"}, {"measurement": "fold induction at 15 mg/kg", "setting": "Rattus norvegicus [18]", "value": 2.2}, {"measurement": "Activity", "setting": "Rattus norvegicus [19]", "value": "Toxic"}, {"measurement": "Ratio", "setting": "Rattus norvegicus [20]", "value": 1.3}, {"measurement": "Activity", "setting": "Rattus norvegicus [21]", "value": "Non-toxic"}, {"measurement": "Ratio", "setting": "Rattus norvegicus [22]", "value": 0.5}, {"measurement": "Ratio", "setting": "Rattus norvegicus [23]", "value": 1.8}, {"measurement": "Activity", "setting": "Rattus norvegicus [24]", "value": "Toxic"}]}]}
